Measurements published in patent US20040077654A1, “Aryl piperidine and piperazine derivatives as inducers of ldl-receptor expression” (priority 2003, published 2004).

Tested on: LDL-r promoter
Assay: LDL-r promoter luciferase reporter gene assay in stably transfected HepG2 cells
Type: cell-based, human
Settings: HepG2 cells with LDL-r promoter/luciferase construct; 24 hours incubation in RPMI with 2% lipoprotein-deficient serum; induction of luciferase activity; read-out: In vitro (IC50)
Protocol: The ability of the compounds of the invention to induce LDL-r expression by human hepatocytes in vitro is determined using a human hepatocarcinoma cell line, Hep G2, as a model system. A reporter gene assay using the LDL-R promotor in front of the Luciferase reporter gene is used as a primary screen.
HepG2 cells, stably transfected with a construct comprising the LDL-r promoter and the luciferase reporter gene, were seeded at 50.000 cells/well in 96 well plates. After 1 day, cells were incubated with compounds for 24 hours in RPMI medium containing 2% of lipoprotein-deficient serum. Compounds were tested from 10^−6M to 10^−9M. Cell lysates were prepared and the luciferase activity was measured by the luciferase assay system (Promega). Induction of luciferase activity was calculated taking untreated cells as control and ED50 of each compounds was determinated compared to the ED50 of an internal standart.

Structure (SMILES) | EC50 [nM]
Cc1cc(C2CCN(CCCCNC(=O)c3ccc(-c4ccc(C(F)(F)F)cc4)cc3)CC2)c(C)cc1OCc1ccccn1 [Example 7] | 4
COc1c(C2CCN(CCCCOc3ccc(-c4ccc(C#N)cc4)cc3)CC2)ccc2ccccc12 [Example 26, 4′-{4-[4-(1-Methoxy-naphtalen-2-yl)-piperidin-1-yl]-butoxy}-biphenyl-4-carbonitrile] | 1
O=C(NCCCCN1CCC(c2ccc3c(c2OCC2CC2)CCCC3)CC1)c1ccc2oc(-c3ccc(Cl)c(Cl)c3)cc2c1 [Example 31, 2-(3,4-Dichloro-phenyl)-benzofuran-5-carboxylic acid {4-[4-(1-cyclopropylmethoxy-5,6,7,8-tetrahydro-naphtalen-2-yl)-piperidin-1-yl]-butyl}-amide] | 20
O=C(NCCCCN1CCC(c2ccc3c(c2OCC2CC2)CCCC3)CC1)c1ccc2oc(-c3ccc(C(F)(F)F)nc3)cc2c1 [Example 32, 2-(6-Trifluoromethyl-pyridin-3-yl)-benzofuran-5-carboxylic acid {4-[4-(1-cyclopropylmethoxy-5,6,7,8-tetrahydronaphtalen-2-yl)-piperidin-1-yl]-butyl}-amide] | 13

Same assay, conditions: Homo sapiens; HepG2 cells with LDL-r promoter/luciferase construct; 24 hours incubation in RPMI with 2% lipoprotein-deficient serum; induction of luciferase activity; read-out: In vitro (IC50)

Structure (SMILES) | EC50 [nM]
CCOc1cc(C)ccc1N(C1CCN(CCCCNC(=O)c2ccc(-c3ccc(C(F)(F)F)cc3)cc2)CC1)S(=O)(=O)c1ccccc1 [Example 20, 4′-Trifluoromethyl-biphenyl-4-carboxylic Acid (4-{4-[benzenesulfonyl-(2-ethoxy-4-methyl-phenyl)-amino]-piperidin-1-yl}butyl)-amide] | 117
CCOc1cc(C)ccc1C1CCN(CCCCNC(=O)c2ccc(C=Cc3ccc(C(F)(F)F)cc3)cc2)CC1 [Example 33, N-{4-[4-(2-Ethoxy-4-methyl-phenyl)-piperidin-1-yl]-butyl}-4-[2-(4-trifluoromethylphenyl)-vinyl]-benzamide] | 30
Cn1cc(C2CCN(CCCCNC(=O)c3ccc(-c4ccc(C#N)cc4)cc3)CC2)c2ccccc21 [Example 40, 4′-Cyano-biphenyl-4-carboxylic acid {4-[4-(1-methyl-1H-indol-3-yl)-piperidin-1-yl]-butyl}-amide] | 10

Tested on: not given
Assay: not given
Settings: not given

Structure (SMILES) | melting point [°C]
COc1ccc(C2CCN(CCCCNC(=O)c3ccc(NC(=O)c4ccc(Cl)cc4)cc3)CC2)c(OC)c1.Cl | 238
CCOc1cc(C)ccc1C1CCN(CCCCNS(=O)(=O)c2ccc(-c3ccc(C(F)(F)F)cc3)cc2)CC1.Cl | 188 to 190
COc1cc(C)ccc1N1CCN(CCCCNC(=O)c2ccc(NC(=O)c3ccc(Cl)cc3)cc2)CC1.Cl (hydrate or solvate) | 227
CCOc1cc(C)ccc1C1CCN(CCCCNC(=O)c2ccc(NC(=O)c3ccc(Cl)cc3)cc2)CC1 [Example 2, 4-(4-chloro-benzoylamino)-N-{4-[4-(2-ethoxy-4-methyl-phenyl)-piperidin-1-yl]-butyl}-benzamide] | 254
CCOc1cc(CC)ccc1C1CCN(CCCCNC(=O)c2ccc(NC(=O)c3ccc(Cl)cc3)cc2)CC1 [Example 3, 4-(4-chloro-benzoylamino)-N-{4-[4-(2-ethoxy-4-ethyl-phenyl)-piperidin-1-yl]-butyl}-benzamide] | 250
CCc1ccc(C2CCN(CCCCNC(=O)c3ccc(NC(=O)c4ccc(Cl)cc4)cc3)CC2)c(OC)c1 [Example 4, 4-(4-chloro-benzoylamino)-N-{4-[4-(4-ethyl-2-methoxy-phenyl)-piperidin-1-yl]-butyl}-benzamide] | 235
COc1cc(C(C)C)ccc1C1CCN(CCCCNC(=O)c2ccc(NC(=O)c3ccc(Cl)cc3)cc2)CC1 [Example 5, 4-(4-chloro-benzoylamino)-N-{4-[4-(4-isopropyl-2-methoxy-phenyl)-piperidin-1-yl]-butyl}-benzamide] | 241
CCOc1cc(C(C)C)ccc1C1CCN(CCCCNC(=O)c2ccc(NC(=O)c3ccc(Cl)cc3)cc2)CC1 [Example 6, 4-(4-chloro-benzoylamino)-N-{4-[4-(2-ethoxy-4-isopropyl-phenyl)-piperidin-1-yl]-butyl}-benzamide] | 242
O=C(NCCCCN1CCC(c2ccc3c(c2)OCO3)CC1)c1ccc(NC(=O)c2ccc(Cl)cc2)cc1 [Example 8, 4-(4-chloro-benzoylamino)-N-[4-(4-benzo[1,3]dioxol-5-yl-piperidin-1-yl]-butyl}-benzamide] | 238 to 248
O=C(NCCCCN1CCC(c2ccc3ccccc3c2)CC1)c1ccc(NC(=O)c2ccc(Cl)cc2)cc1 [Example 9, 4-(4-chloro-benzoylamino)-N-[4-(4-naphthalen-2-yl-piperidin-1-yl]-butyl}-benzamide] | 270
O=C(NCCCCN1CCC(c2ccc3c(c2)CCCC3)CC1)c1ccc(NC(=O)c2ccc(Cl)cc2)cc1 [Example 10, 4-(4-chloro-benzoylamino)-N-{4-[4-(5,6,7,8-tetrahydro-naphthalen-2-yl)-piperidin-1-yl]-butyl}-benzamide] | 285
O=C(NCCCCN1CCC(c2cccc3ccccc23)CC1)c1ccc(NC(=O)c2ccc(Cl)cc2)cc1 [Example 11, 4-(4-chloro-benzoylamino)-N-[4-(4-naphthalen-1-yl-piperidin-1-yl]-butyl}-benzamide] | 264
CSc1ccccc1C1CCN(CCCCNC(=O)c2ccc(-c3ccc(C(F)(F)F)cc3)cc2)CC1 [Example 13, 4′-Trifluoromethyl-biphenyl-4-carboxylic acid {4[4-(2-methylsulfanyl-phenyl)-piperidin-1-yl]-butyl}-amide] | 191 to 192
Cn1cc(C2CCN(CCCCNC(=O)c3ccc(-c4ccc(C(F)(F)F)cc4)cc3)CC2)c2ccccc21 [Example 14, 4′-Trifluoromethyl-biphenyl-4-carboxylic acid {4-[4-(1−methyl-1H-indol-3-yl)-piperidin-1-yl]-butyl}-amide] | 205 to 206
O=C(NCCCCN1CCC(c2csc3ccccc23)CC1)c1ccc(-c2ccc(C(F)(F)F)cc2)cc1 [Example 16, 4′-Trifluoromethyl-biphenyl-4-carboxylic acid [4-(4-benzo[b]thiophen-3-yl-piperidin-1-yl)-butyl]-amide] | 264
CCOc1cc(C)ccc1NC1CCN(CCCCNC(=O)c2ccc(-c3ccc(C(F)(F)F)cc3)cc2)CC1 [Example 19, 4′-Trifluoromethyl-biphenyl-4-carboxylic acid {4-[4-(2-ethoxy-4-methyl-phenylamino)-piperidin-1-yl]-butyl}-amide] | 162
CCOc1cc(C)ccc1N(C1CCN(CCCCNC(=O)c2ccc(-c3ccc(C(F)(F)F)cc3)cc2)CC1)S(=O)(=O)c1ccccc1 [Example 20, 4′-Trifluoromethyl-biphenyl-4-carboxylic Acid (4-{4-[benzenesulfonyl-(2-ethoxy-4-methyl-phenyl)-amino]-piperidin-1-yl}butyl)-amide] | 110
CCOc1cc(C)ccc1C1CCN(CCCCC(=O)Nc2ccc(-c3ccc(C(F)(F)F)cc3)cc2)CC1 [Example 24, 5-[4-(2-Ethoxy-4-methyl-phenyl)-piperidin-1-yl]-pentanoic acid (4′-trifluoromethyl-biphenyl-4-yl)-amide] | 178
COc1cc(C(C)C)ccc1C1CCN(CCCCNC(=O)c2sc(-c3ccc(C(F)(F)F)cc3)nc2C)CC1 [Example 27, 4-Methyl-2-(4-trifluoromethyl-phenyl)-thiazole-5-carboxylic acid {4-[4-(4-isopropyl-2-methoxy-phenyl)-piperidin-1-yl]-butyl}-amide] | 170
CCOc1cc(C)ccc1C1CCN(CCCCNC(=O)c2ccc3c(c2)cc(-c2ccc(Cl)cc2)n3C)CC1 [Example 28, 2-(4-Chloro-phenyl)-1-methyl-1H-indole-5-carboxylic Acid {4-[4-(2-ethoxy-4-methyl-phenyl)-piperidin-1-yl]-butyl}-amide] | 174 to 175
CCOc1cc(C)ccc1C1CCN(CCCCNC(=O)c2ccc3oc(-c4ccc(C(F)(F)F)cc4)cc3c2)CC1 [Example 29, 2-(4-Trifluoromethyl-phenyl)-benzofuran-5-carboxylic Acid {4-[4-(2-ethoxy-4-methyl-phenyl)-piperidin-1-yl]-butyl}-amide] | 200
CCOc1cc(C)ccc1C1CCN(CCCCNC(=O)c2ccc3oc(-c4ccc(Cl)cc4)cc3c2)CC1 [Example 30, 2-(4-Chloro-phenyl)-benzofuran-5-carboxylic acid {4-[4-(2-ethoxy-4-methylphenyl)-piperidin-1-yl]-butyl}-amide] | 145 to 158
CCOc1cc(C)ccc1C1CCN(CCCCNC(=O)c2ccc(C=Cc3ccc(C(F)(F)F)cc3)cc2)CC1 [Example 33, N-{4-[4-(2-Ethoxy-4-methyl-phenyl)-piperidin-1-yl]-butyl}-4-[2-(4-trifluoromethylphenyl)-vinyl]-benzamide] | 210
CCOc1cc(C)ccc1C1CCN(CCCCNC(=O)c2ccc(OCc3ccc(C(F)(F)F)cc3)cc2)CC1 [Example 34, N-{4-[4-(2-Ethoxy-4-methyl-phenyl)-piperidin-1-yl]-butyl}4-(4-trifluoromethyl-benzyloxy)-benzamide] | 180 to 182
CCOc1ccc(CC2CCN(CCCCNC(=O)c3ccc(-c4ccc(C(F)(F)F)cc4)cc3)CC2)c(OCC)c1 [Example 38, 4′-trifluoromethyl-biphenyl-4-carboxylic acid {4-[4-(2,4-diethoxy-benzyl)-piperidin-1-yl]-butyl}amide] | 136 to 137
Cn1cc(C2CCN(CCCCNC(=O)c3ccc(-c4ccc(C#N)cc4)cc3)CC2)c2ccccc21 [Example 40, 4′-Cyano-biphenyl-4-carboxylic acid {4-[4-(1-methyl-1H-indol-3-yl)-piperidin-1-yl]-butyl}-amide] | 180
